The text below walks through data of patent publication EP0421697A2, “Contrast agents and methods for enhancing magnetic resonance imaging” (SMITHKLINE BEECHAM CORPORATION, priority 1989, dated 1991).

Details of data set [1]: species or system Male Sprague-Dawley rats. As to conditions: rat, in vivo. The procedure: Male Sprague-Dawley rats (200 to 350 g; Charles River Breeding Laboratories, Raleigh, NC) were anesthetized with Inactin (100 mg/kg, i.p.; Byk Gulden). A jugular vein and femoral artery were isolated and cannulated with PE-50 polyethylene tubing (Clay-Adams). The femoral artery cannula was connected to a pressure transducer (Gould-Statham Model P23id) for blood pressure and heart rate recording. The jugular vein cannula was connected to an infusion pump (Sage Model 352) and an infusion of inulin (Inutest, Laevasan-Gesellschaft; 10% in 0.9% NaCl) and ytterbium-diethyltriaminepentaacetic acid (Yb-DTPA in water 6.0 mg/ml) was initiated at a rate of […]. […]
Urine volumes were measured gravimetrically (specific gravity = 1) and 50 µl was removed for determination of inulin and Yb-DTPA concentrations. Inulin concentrations in plasma and urine samples were determined according to the method of Heyrosky (1956). Yb concentrations were determined by inductively-coupled plasma emission spectrometry using a Model JY-38P (Instruments SA, Inc.) and a grating of 3600 lines/mm. The 369.42 nm Yb line and 5 one-second measurements were taken at the end of each sample aspiration to provide an average reading (Bumbier, et al., 1984). […] Plasma concentrations of inulin and Yb-DTPA for C₂ were estimated from values measured for C₁ and C₃. […]

Data set [2] relates to normal rat kidney. As to the kind of experiment: MR imaging of rat kidney after i.v. bolus of Yb-DTPA (signal intensity ratio Ipapilla/Imuscle over time). Type of data set: in vivo, rats. As to conditions: 1 ml of a 50 mM solution in saline, GE SIGNA 1.5T, images every 20 seconds, Figure 1. From the text: After administration of the chelate solution to the subject, imaging with any conventional MR imaging system may be begun. Preferably, a fast imaging sequence, such as gradient echo imaging is used. […] This graph plots the ratio of signal intensity of region of interest to signal intensity of surrounding muscle tissue over time, as shown, for example in Figure 1, discussed below.
As in the above comparative example, rats were provided with an infusion line and strapped in an MRI magnet GE SIGNA 1.5T. 1 ml of a 50 mM solution of Yb-DTPA in saline was injected (intravenously) as a bolus. Images were collected every 20 seconds and the signal intensity from the rat papilla (Ipapilla) and signal intensity for the surrounding rat muscle (Imuscle) were measured. […] The area under the curve is an index of GFR.

Turning to “ytterbium-diethylenetriamine pentaacetic acid [Yb-DTPA]”, in data set [1], the “Mean (± SEM) renal clearance (Cin, CYb)” value is reported as 1101 ± 47 and the “share of renal elimination via glomerular filtration” value is around 85%. The “ratio of signal intensities Ipapilla/Imuscle against time” value in data set [2] is “sharp decrease in the ratio and the slow rise”.
